Experimental data as given in PubChem BioAssay (NCI).
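In this assay, cells in 96-well plates receive the compound at five concentrations for 48 hours. Endpoints are linearly interpolated between the surrounding concentrations. TGI: total growth inhibition.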

How the values were obtained:
Assay in all cases: NCI anticancer screen, dose series, 48 h
ACHN renal = test system: ACHN renal
CCRF-CEM leukemia = test system: CCRF-CEM leukemia
HCC-2998 colon = test system: HCC-2998 colon
HT29 colon = test system: HT29 colon
MCF7 breast = test system: MCF7 breast
MDA-N = test system: MDA-N
NCI-H226 lung = test system: NCI-H226 lung
NCI-H522 lung = test system: NCI-H522 lung
SF-268 CNS = test system: SF-268 CNS
SF-295 CNS = test system: SF-295 CNS
SN12C renal = test system: SN12C renal
SNB-19 CNS = test system: SNB-19 CNS
U251 CNS = test system: U251 CNS
UACC-257 melanoma = test system: UACC-257 melanoma

| SMILES | TGI (ACHN renal) [µM] | TGI (CCRF-CEM leukemia) [µM] | TGI (HCC-2998 colon) [µM] | TGI (HT29 colon) [µM] | TGI (MCF7 breast) [µM] | TGI (MDA-N) [µM] | TGI (NCI-H226 lung) [µM] | TGI (NCI-H522 lung) [µM] | TGI (SF-268 CNS) [µM] | TGI (SF-295 CNS) [µM] | TGI (SN12C renal) [µM] | TGI (SNB-19 CNS) [µM] | TGI (U251 CNS) [µM] | TGI (UACC-257 melanoma) [µM] |
| --- | --- | --- | --- | --- | --- | --- | --- | --- | --- | --- | --- | --- | --- | --- |
| CC1=C2C(=O)[C@H]3[C@@H](CC=C4C[C@@H](O)CC[C@@]43C)[C@@H]2CC[C@]12O[C@@H]1C[C@H](C)CN[C@H]1[C@H]2C | > 56.3 | > 100 | > 82.8 | > 100 | > 100 | > 100 | > 61 | > 59.6 | > 66.7 | > 58.7 | > 60.6 | > 57.6 | > 55.5 | > 71.5 |
| CC(C)C1(C)N=C(C(F)(F)F)c2cc(C(=O)C(F)(F)F)c3ccccc3c2N1 (stereo unspecified) | 12 | > 100 | 11.9 | 13.5 | 14.7 | 13 | 30.4 | 7.16 | 13.7 | 11.8 | 11 | 16.6 | 11.1 | 19.5 |
| CN(NC(=O)CCCl)C1=NCCN1 | > 100 | > 100 | > 100 | > 100 | > 100 | > 100 | > 100 | > 100 | > 100 | > 100 | > 100 | > 100 | > 100 | > 100 |
| COc1cc(CCCOC(=O)/C=C/c2ccc(O)c(O)c2)cc(O)c1O | > 100 | > 100 | > 100 | 98.7 | 69.4 | 53.7 | > 100 | 29.2 | 84.5 | > 100 | > 100 | > 100 | > 100 | > 100 |
| CC1(C)N=C(C(N)=O)c2ncn(-c3ccccc3)c2N1 | > 100 | > 100 | > 100 | > 100 | > 100 | > 100 | > 100 | > 100 | > 100 | > 100 | > 100 | > 100 | > 100 | > 100 |
| CCc1n[nH]c(=O)n1/N=C/c1ccccc1Cl | > 100 | > 100 | > 100 | > 100 | > 100 | > 100 | > 100 | > 100 | > 100 | > 100 | > 100 | > 100 | > 100 | > 100 |
| C[C@H](Nc1c(O)c2c(c(O)c1Cl)C(=O)C=CC2=O)C(=O)Nc1ccc([N+](=O)[O-])cc1 | 9.31 | > 10 | 8.05 | 8.57 | 3.42 | 6.67 | 6.84 | 6.65 | 5.79 | 7.54 | 2.99 | 9.59 | 6.02 | 3.41 |
| S=C(N/N=C(/c1ccccc1)c1ccccn1)Nc1ccccc1Cl | 9.46 | > 38.1 | 8.11 | 13.4 | 6.89 | 13.6 | 2.67 | 1.89 | 13.3 | 7.29 | 14.9 | 15.8 | 10.9 | 12.6 |
| O=C(CC(=O)N1N=C(N2CCCCC2)CC1c1ccccc1)Nc1ccc(Cl)cc1 (stereo unspecified) | > 100 | > 100 | > 100 | > 100 | > 100 | > 100 | > 100 | > 100 | > 100 | > 100 | > 100 | > 100 | > 100 | > 100 |
| O=c1[nH]c(Nc2cccc(C(F)(F)F)c2)nc2nc[nH]c12 | > 100 | > 100 | > 100 | > 100 | > 100 | > 100 | > 100 | > 100 | > 100 | > 100 | > 100 | > 100 | > 100 | > 100 |
| N#Cc1c(-c2ccc([N+](=O)[O-])cc2)cc(-c2ccc(Nc3ccnc4cc(C(F)(F)F)ccc34)cc2)nc1N | > 68.8 | > 29.7 | > 55.4 | 34.2 | 10.7 | 38.3 | > 70.1 | > 100 | > 72 | 37.6 | 46.6 | 34.7 | 21.9 | > 85.2 |
| Clc1ccc(Oc2ccc(N=Cc3ccc(Cl)cc3Cl)cc2Cl)cc1 | > 100 | 44.8 | > 100 | > 100 | > 100 | 33.7 | > 100 | 92 | > 100 | > 100 | > 100 | > 100 | 89.3 | > 100 |
| CN(C)c1ccc(/C=C(\C#N)C(N)=C(C#N)C#N)cc1 | > 100 | > 100 | > 100 | > 100 | > 100 | > 100 | > 100 | > 100 | > 100 | > 100 | > 100 | > 100 | > 100 | > 100 |
| Cc1c(CCOC=O)c(=O)[nH]c2nncn12 | > 100 | > 100 | > 100 | > 100 | > 100 | > 100 | > 100 | > 100 | > 100 | > 100 | > 100 | > 100 | > 100 | > 100 |
| Cc1ccc(S(=O)(=O)NN=C2CCCCCCCCCCC2)cc1 | > 100 | > 100 | > 100 | > 100 | > 100 | > 100 | > 100 | > 100 | > 100 | > 100 | > 100 | > 100 | > 100 | > 100 |
| CC1(C)CC[C@]2(C)CC=C3[C@]4(C)CC[C@H]5C(C)(C)C(=O)CC[C@]5(C)[C@H]4CC[C@@]3(C)[C@H]2C1 | > 100 | > 100 | > 100 | > 100 | > 100 | > 100 | > 100 | > 100 | > 100 | > 100 | > 100 | > 100 | > 100 | > 100 |
| COc1ccc2nc3ccc(OC)cc3c(S(=O)(=O)Cc3ccc([N+](=O)[O-])cc3)c2c1 | > 100 | > 100 | > 100 | > 100 | > 100 | > 100 | > 100 | > 100 | > 100 | > 100 | > 100 | > 100 | > 100 | > 100 |
| CC1(c2nc3cc(Cl)c(Cl)cc3[nH]2)CCC(CO)C(C)(C)O1 (stereo unspecified) | > 100 | > 100 | > 100 | 34.2 | > 100 | > 100 | 56.6 | 30.3 | > 100 | 95.3 | > 100 | > 100 | > 100 | > 100 |
| C[C@]12CC[C@@H]3c4cc(OCC(F)(F)F)c(O)cc4C(=O)C[C@H]3[C@@H]1CC[C@@H]2O | > 100 | > 66.3 | 38.7 | 38.4 | > 100 | 5.69 | > 100 | > 100 | > 100 | 15.4 | > 100 | > 79.5 | > 38.8 | > 100 |
